Tests used:
[1] = test system: T47D (PI3Kα-H1047R) cell line; assay: HTRF phospho-AKT(S473) cell assay in T47D cells; format: cell-based, human
Procedure, shortened: (§1)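 T47D (PI3Kα-H1047R; RPMI, 10% FBS, insulin) and SKBR3 (wild-type PI3Kα; McCoy's 5A, 10% FBS) cells treated 2 h at 37 °C with 12-point 1:3 dilutions, top 5 μM and 10 μM respectively, ≤0.5% DMSO. SKBR3 stimulated with 70 ng/ml PDGF-BB for the last 15 min; lysate pAKT(S473) by HTRF, IC50 from curves.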

[2] = test system: SKBR3 (PI3Kα-Wild Type) cell line; assay: HTRF phospho-AKT(S473) cell assay in SKBR3 cells; format: cell-based, human
Procedure, shortened: as §1

[3] = Homo sapiens; T47D (PI3Kα-H1047R) cells, HTRF phospho-AKT(S473), 2 hours compound incubation
[4] = Homo sapiens, SK-BR-3; SKBR3 (PI3Kα-Wild Type) cells, HTRF phospho-AKT(S473), 2 hours compound incubation, PDGF-BB stimulated
[5] = Homo sapiens; HTRF phospho-AKT(S473), T47D (PI3Kα-H1047R) cells, 2 hours compound incubation
[6] = Homo sapiens, SK-BR-3; HTRF phospho-AKT(S473), SKBR3 (PI3Kα-Wild Type) cells, 2 hours compound incubation, PDGF-BB stimulated

## CC(=O)N1CCN(c2ncc(-c3nc4c([C@@H](C)Nc5ccc(Cl)nc5C(=O)NS(C)(=O)=O)cc(C)cc4c(=O)n3C)cc2F)CC1 [Compound 259, (R)-3-((1-(2-(6-(4-acetylpiperazin-1-yl)-5-fluoropyridin-3-yl)-3,6-dimethyl-4-oxo-3,4-dihydroquinazolin-8-yl)ethyl)amino)-6-chloro-N-(methylsulfonyl) picolinamide]
[1]; [3]
  IC50: < 0.25 µM
[2]; [4]
  IC50: 1 to 5 µM

## C[C@@H](Nc1ccc(Cl)nc1C(=O)NS(C)(=O)=O)c1cc(Cl)cc2c(=O)n(C)c(N3CCC(c4nn(C)cc4F)CC3)nc12 [Compound 431, (R)-6-chloro-3-((1-(6-chloro-2-(4-(4-fluoro-1-methyl-1H-pyrazol-3-yl)piperidin-1-yl)-3-methyl-4-oxo-3,4-dihydroquinazolin-8-yl)ethyl)amino)-N-(methylsulfonyl) picolinamide]
[1]; [3]
  IC50: 0.25 to 0.5 µM
[2]; [4]
  IC50: 1 to 5 µM

## Cc1cc([C@@H](C)Nc2ccc(Cl)nc2C(=O)NS(C)(=O)=O)c2nc(N3Cc4cnn(-c5cccnc5C)c4C3)n(C)c(=O)c2c1 [Compound 252, (R)-6-chloro-3-((1-(3,6-dimethyl-2-(1-(2-methylpyridin-3-yl)-4,6-dihydropyrrolo[3,4-c]pyrazol-5(1H)-yl)-4-oxo-3,4-dihydroquinazolin-8-yl)ethyl)amino)-N-(methylsulfonyl) picolinamide]
[1]; [3]
  IC50: < 0.25 µM
[2]; [4]
  IC50: 1 to 5 µM

## Cc1cc([C@@H](C)Nc2ccc(Cl)nc2C(=O)NS(C)(=O)=O)c2nc(N3Cc4cn(Cc5ccccc5)nc4C3)n(C)c(=O)c2c1 [Compound 684, (R)-3-((1-(2-(2-benzyl-2,6-dihydropyrrolo[3,4-c]pyrazol-5(4H)-yl)-3,6-dimethyl-4-oxo-3,4-dihydroquinazolin-8-yl)ethyl)amino)-6-chloro-N-(methylsulfonyl) picolinamide]
[1]; [5]
  IC50: < 0.25 µM
[2]; [6]
  IC50: 1 to 5 µM

## Cc1cc([C@@H](C)Nc2ccc(Cl)nc2C(=O)NS(C)(=O)=O)c2nc(N3CCN(c4ccc(F)cn4)CC3)n(C)c(=O)c2c1 [Compound 574, (R)-6-chloro-3-((1-(2-(4-(5-fluoropyridin-2-yl)piperazin-1-yl)-3,6-dimethyl-4-oxo-3,4-dihydroquinazolin-8-yl)ethyl)amino)-N-(methylsulfonyl) picolinamide]
[1]; [5]
  IC50: 0.25 to 0.5 µM
[2]; [6]
  IC50: 1 to 5 µM

## Cc1cc([C@@H](C)Nc2ccc(Cl)nc2C(=O)NS(C)(=O)=O)c2nc(N3CCC4(CCN(c5ccn(C)n5)C4)CC3)n(C)c(=O)c2c1 [Compound 359, (R)-6-chloro-3-((1-(3,6-dimethyl-2-(2-(1-methyl-1H-pyrazol-3-yl)-2,8-diazaspiro[4.5]decan-8-yl)-4-oxo-3,4-dihydroquinazolin-8-yl)ethyl)amino)-N-(methylsulfonyl) picolinamide]
[1]; [3]
  IC50: 0.25 to 0.5 µM
[2]; [4]
  IC50: ≥ 5 µM

## Cc1cc([C@@H](C)Nc2ccc(Cl)nc2C(=O)NS(C)(=O)=O)c2nc(N3CCC(c4cnc(C)nc4)CC3)n(C)c(=O)c2c1 [Compound 261, (R)-6-chloro-3-((1-(3,6-dimethyl-2-(4-(2-methylpyrimidin-5-yl)piperidin-1-yl)-4-oxo-3,4-dihydroquinazolin-8-yl)ethyl)amino)-N-(methylsulfonyl) picolinamide]
[1]; [3]
  IC50: < 0.25 µM
[2]; [4]
  IC50: 1 to 5 µM

## Cc1cc([C@@H](C)Nc2ccc(Cl)nc2C(=O)NS(C)(=O)=O)c2nc(N3Cc4cn(C(F)(F)F)nc4C3)n(C)c(=O)c2c1 [Compound 210, (R)-6-chloro-3-((1-(3,6-dimethyl-4-oxo-2-(2-(trifluoromethyl)-2,6-dihydropyrrolo[3,4-c]pyrazol-5(4H)-yl)-3,4-dihydroquinazolin-8-yl)ethyl)amino)-N-(methylsulfonyl) picolinamide]
[1]; [3]
  IC50: < 0.25 µM
[2]; [4]
  IC50: 1 to 5 µM

## Cc1cc([C@@H](C)Nc2ccc(Cl)nc2C(=O)NS(C)(=O)=O)c2nc(N3CCC(c4ncc(C5CC5)cn4)CC3)n(C)c(=O)c2c1 [Compound 509, (R)-6-chloro-3-((1-(2-(4-(5-cyclopropylpyrimidin-2-yl)piperidin-1-yl)-3,6-dimethyl-4-oxo-3,4-dihydroquinazolin-8-yl)ethyl)amino)-N-(methylsulfonyl) picolinamide]
[1]; [5]
  IC50: 0.25 to 0.5 µM
[2]; [6]
  IC50: ≥ 5 µM

Reference: patent US12281122B1, “PI3K inhibitors” (Cogent Biosciences, Inc., priority 2023, dated 2025)
